Test results as given in PubChem BioAssay (NCI).
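Growth conditions: 96-well plates. Treatment: test compound, 48 hours, 5 concentrations. Analysis: linear interpolation between bracketing concentrations; unreached endpoints set to highest concentration. GI50: concentration for 50% inhibition of growth. TGI: concentration producing complete growth inhibition.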

Assays:
Test in all cases: NCI tumour cell line growth inhibition, 48 h
OVCAR-5 ovarian = tested on: OVCAR-5 ovarian
MALME-3M melanoma = tested on: MALME-3M melanoma
SR leukemia = tested on: SR leukemia
K-562 leukemia = tested on: K-562 leukemia
SF-295 CNS = tested on: SF-295 CNS
A549 NSCLC = tested on: A549 NSCLC
UO-31 renal = tested on: UO-31 renal
SF-539 CNS = tested on: SF-539 CNS
COLO 205 colon = tested on: COLO 205 colon
U251 CNS = tested on: U251 CNS

Compound	TGI (OVCAR-5 ovarian)	TGI (MALME-3M melanoma)	TGI (SR leukemia)	TGI (K-562 leukemia)	TGI (SF-295 CNS)	TGI (A549 NSCLC)	TGI (UO-31 renal)	TGI (SF-539 CNS)	TGI (COLO 205 colon)	TGI (U251 CNS)	GI50 (OVCAR-5 ovarian)	GI50 (MALME-3M melanoma)	GI50 (SR leukemia)	GI50 (K-562 leukemia)	GI50 (SF-295 CNS)	GI50 (U251 CNS)	GI50 (A549 NSCLC)	GI50 (UO-31 renal)	GI50 (SF-539 CNS)	GI50 (COLO 205 colon)
CC(=O)O/N=C1\C=Cc2c(no[n+]2[O-])C1=O	32.7 µM	28.1 µM	48.5 µM	> 100 µM	> 100 µM	31.1 µM	28.3 µM	31.3 µM	22 µM											
Cn1c(=O)c(C2c3ccccc3Oc3c2c(=O)n(C)c2ccccc32)c(O)c2ccccc21 (stereo not given)	> 100 µM	> 100 µM	> 100 µM	> 100 µM	> 100 µM	> 100 µM	> 100 µM	> 100 µM	> 100 µM	> 100 µM										
CCOC(=O)C(=C=Cc1cccs1)C(=O)c1ccccc1	28.5 µM	29.3 µM	49 µM	> 100 µM	31.9 µM	45.5 µM	27.3 µM	30.6 µM	31.4 µM	31.3 µM										
O=C(Nc1ccc(Cl)cc1Cl)c1c/c(=N\O)c2ccc(O)cc2o1	> 100 µM	> 100 µM	> 100 µM	> 100 µM	> 100 µM	> 100 µM	> 100 µM	> 100 µM	> 100 µM	> 100 µM										
O=C(O)C(=O)/C=C\c1ccc(Cl)cc1	> 100 µM	> 100 µM	> 100 µM	> 100 µM	> 100 µM	> 100 µM	> 100 µM	> 100 µM	> 100 µM	> 100 µM										
COC(=O)C1=C(SC)SC2(C(=O)OC)C3C=C(C)C4C(N13)C42C(=O)OC (stereo not given)	> 100 µM	> 100 µM	> 100 µM	> 100 µM	> 100 µM	> 100 µM	> 100 µM	> 100 µM	> 100 µM	> 100 µM										
c1ccc2c(c1)N=c1ccccc1=P21c2ccccc2Nc2ccccc21	3.81 µM	0.868 µM	1.75 µM	> 100 µM	7.64 µM	15.3 µM	27 µM	9.24 µM	0.366 µM	11.3 µM										
O=C(O)/C=C/C(=O)Nc1cccc2c1-c1ccccc1C2=O	> 100 µM	> 100 µM	> 57.8 µM	> 64.1 µM	> 33.8 µM	> 100 µM	> 100 µM	19.2 µM	36.1 µM	> 57.5 µM										
CN1CCN(c2nc(NCCNc3ccnc4cc(Cl)ccc34)c3ccccc3n2)CC1	13.3 µM	3.76 µM	3.67 µM	3.82 µM	3.45 µM	5.97 µM	3.53 µM	3.34 µM	2.33 µM	10.1 µM	3.35 µM	2 µM	1.3 µM	0.721 µM	1.79 µM	2.3 µM	1.44 µM	1.55 µM	1.77 µM	0.974 µM
COC(=O)CC[C@@H](NC(=O)C(C)NC(=O)COC1C(O)C(COC(=O)CCCCCCCCCCNC(=O)c2ccc([N+](=O)[O-])c3[nH]c4cc(Br)ccc4c(=O)c23)OC(OCc2ccccc2)C1NC(C)=O)C(N)=O (stereo not given in full)	> 100 µM	> 100 µM	> 100 µM	> 100 µM	> 100 µM	> 100 µM	> 100 µM	> 100 µM	> 100 µM	> 100 µM										
COC1=C(NC(C)=O)C(=O)c2nc3n(c2C1=O)CCC3	34.6 µM	34.8 µM	> 86.2 µM	> 65.1 µM	40.3 µM	> 69.9 µM	47.1 µM	32.9 µM	38.6 µM	> 59.9 µM										
CCCCc1c2c(nc3c1CCc1cc(C=O)c(N)nc1-3)/C(=C/c1ccccc1)CCC2	> 100 µM	> 100 µM	> 100 µM	> 100 µM	> 100 µM	61.5 µM	> 100 µM	> 100 µM	32.3 µM	> 100 µM										
Cc1cc(CC(O)(C(F)(F)F)C(F)(F)F)cc(CC(O)(C(F)(F)F)C(F)(F)F)n1	19.2 µM	4.3 µM	15.1 µM	> 100 µM	9.94 µM	10.9 µM	4.02 µM	8.71 µM	3.33 µM	11.9 µM										
O=C(O)CSc1ccn(Cc2ccccc2)c1	> 100 µM	> 100 µM	> 100 µM	> 100 µM	> 100 µM	> 100 µM	> 100 µM	> 100 µM	> 100 µM	> 100 µM										
O=C(NCCc1ccccc1)C(c1csc2ccccc12)N(C(=O)CCl)c1ccc(-c2cnco2)cc1 (stereo not given)	2.07 µM	0.308 µM	0.107 µM	> 20.7 µM	0.302 µM	1.64 µM	0.0354 µM	0.257 µM	3.28 µM	0.644 µM	0.682 µM	0.146 µM	0.0268 µM	0.509 µM	0.156 µM	0.163 µM	0.393 µM	0.0173 µM	0.126 µM	1.56 µM
COc1ccc(C2CC(c3cccc(Nc4ccnc5cc(Cl)ccc45)c3)=NN2c2ccccc2)cc1 (stereo not given)	61.7 µM	42.7 µM	8.52 µM	32.3 µM	16.4 µM	> 100 µM	21.6 µM	3.25 µM	8.66 µM		11.8 µM	10.7 µM	1.17 µM	0.492 µM	1.62 µM		2 µM	0.478 µM	1.15 µM	1.43 µM
CC(=O)OCC1OC(n2c(-c3ccc(N)cc3)cc(-c3ccco3)c(C#N)c2=O)C(OC(C)=O)C(OC(C)=O)C1OC(C)=O (stereo not given)	> 50 µM	> 50 µM	> 50 µM		> 50 µM	> 50 µM	> 50 µM	30.2 µM	> 50 µM	29.8 µM										
NNC(=S)N/N=C(\c1nc2ccc(Cl)cc2[nH]c1=O)C(O)c1ccc(Cl)cc1Cl (stereo not given)	> 100 µM	> 100 µM	> 100 µM	> 100 µM	> 100 µM	> 100 µM	> 100 µM	> 100 µM	> 100 µM	> 100 µM										
COc1ccc(-c2cc(-c3ccco3)c(C#N)c(=O)n2C2OC(OC(=O)c3ccccc3)C(OC(=O)c3ccccc3)C2OC(=O)c2ccccc2)cc1 (stereo not given)	> 100 µM	> 100 µM	> 100 µM	> 100 µM	> 100 µM		> 100 µM	> 100 µM	> 100 µM	> 100 µM										
